Laboratory results as given in article PMC9896555, “Cyclic Acetals as Novel Long-Lasting Mosquito Repellents” (Journal of Agricultural and Food Chemistry, 2023).
Like-named read-outs stand apart in the source and are kept apart here.

System: Aedes albopictus
Assay: Protection time at 0.17 mg/cm2, human-bait technique
Format: in vivo
Conditions: for Average PT >95% (% coefficient of variation) / Estimated 100% PT (complete protection time, mean±SE): at the dose of 0.17mg/cm2; for Estimated 100% PT (complete protection time, mean±SE): Kaplan–Meier estimate; for repellent activity, in words: against A. albopictus; for pest or weed control at 0.17 mg/cm2, 0.17 mg/cm2: Aedes albopictus, topical, read-out: Protection time PE%; for Protection time (95% protection): dose of 0.17 mg/cm^2, tests ended after 8 h
Procedure: To evaluate the protection time of derivatives, the PE % was measured with 100 μL of a 5% ethanol solution, corresponding to 0.17 mg/cm^2 of exposed skin, under the same laboratory conditions. Mosquito-exposed skin was treated with 100 μL of ethanol, as the negative hand control. For each volunteer (up to 8), the test was performed every hour, up to 8 h from the application. The protection time of DEET and Icaridin was measured under the same conditions. Since these trials were run in parallel with those aimed to profile the cytotoxicity of the compounds (paragraph 2.6), we interrupted the experiments for those compounds showing to have higher cytotoxicity than Icaridin and DEET as soon as the results were available. For this reason, the number of volunteers differs among the compounds.
The average time until protection which was higher than 95% protection time was considered for each compound. Moreover, for the compounds tested on at least three volunteers, the complete (100%) protection time was also estimated (SPSS 28.01.0) using the Kaplan–Meier survivor function procedure.[22]

SMILES | Protection time PE% (0.17mg/cm2, 0 min) [%] | Protection time PE% (0.17mg/cm2, 1 h) [%] | Protection time PE% (0.17mg/cm2, 2 h) [%] | Protection time PE% (0.17mg/cm2, 3 h) [%] | Protection time PE% (0.17mg/cm2, 4 h) [%] | Protection time PE% (0.17mg/cm2, 5 h) [%] | Protection time PE% (0.17mg/cm2, 6 h) [%] | Protection time PE% (0.17mg/cm2, 7 h) [%] | Protection time PE% (0.17mg/cm2, 8 h) [%] | Average PT >95% (% coefficient of variation) | Estimated 100% PT (complete protection time, mean±SE) [min] | further results
CC(C)=CCCC1(C)OCC(CO)O1 (mixture of isomers) [8a] | 100 | 100 | 100 | 100 | 100 | 99.39 | 100 | 97.44 | 84.95 |  |  | 
CCCCCCCC1OCC(C)(CO)CO1 (mixture of isomers) [9b] | 97.02 | 98.5 |  | 98.35 | 100 | 97.67 | 93.8 | 96.63 | 91.73 | 420 (5.6) min | 120 ± 105 | 
CCCCC(CC)C1OCC(CO)O1 (mixture of isomers) [10a] | 100 | 100 | 100 | 100 | 100 | 97.5 | 100 | 63.17 |  | 360 (56.8) min |  | 
CCCCCC1(CC)OCC(CO)O1 (mixture of isomers) [11a] | 100 | 100 | 100 | 100 | 98.12 | 93.19 | 72.96 |  |  | 240 (3.8) min | 345 ± 66 | 
CCCCCCCCC1OCC(CO)O1 (mixture of isomers) [13a] | 99.47 | 100 | 100 | 99.41 | 100 | 97.22 | 99.06 | 96.82 | 82.75 | 420 (4.7) min | 270 ± 77 | 
CC(C)(C)C1CCC2(CC1)OCC(CO)O2 (mixture of isomers) [19a] |  |  |  |  |  |  |  |  |  | 0 min |  | 
CC1(CCc2ccccc2)OCC(CO)O1 (mixture of isomers) [20a] |  |  |  |  |  |  |  |  |  | 0 min |  | 
CC(C)c1ccc(C2OCC(CO)O2)cc1 (mixture of isomers) [21a] |  |  |  |  |  |  |  |  |  | 0 min |  | 
CCCCCCCCCCCC1OCC(CO)O1 (mixture of isomers) [24a] |  |  |  |  |  |  |  |  |  | 0 min |  | 
CC(C)CC1(CC(C)C)OCC(CO)O1 (racemic) [17a] | 100 | 100 | 100 | 100 | 98 | 98.39 | 92.05 | 74.4 | 43.92 | 300 (2.3) min |  | 
OCC1COC2(CCCCCCCCCCC2)O1 (racemic) [25a] |  |  |  |  |  |  |  |  |  | 0 min |  | 
CC1(CO)COC(C)(C)OC1 [5b] |  |  |  |  |  |  |  |  |  | 0 min |  | repellent activity, in words: lack of activity
CCCC1(CCC)OCC(C)(CO)CO1 [7b] | 100 | 99.45 | 100 | 99.21 | 98.74 | 98.42 | 84.33 |  |  | 300 (1.4) min | 220 ± 87 | 
CCCC1(CCC)OCC(CC)(CO)CO1 [7c] | 99.35 | 94.12 | 97.7 | 98.08 | 99.4 | 91.72 | 97.22 | 94.29 | 94.44 | 360 (3.3) min | 60 ± 34 | 
CC1(CO)COC2(CCCCCCC2)OC1 [12b] |  |  |  |  |  |  |  |  |  | 420 (3.1) min | 240 ± 60 | pest or weed control at 0.17 mg/cm2, 0.17 mg/cm2 (0.17mg/cm2, 1 h): 100%; pest or weed control at 0.17 mg/cm2, 0.17 mg/cm2 (0.17mg/cm2, 2 h): 99.5%; pest or weed control at 0.17 mg/cm2, 0.17 mg/cm2 (0.17mg/cm2, 3 h): 98.7%; pest or weed control at 0.17 mg/cm2, 0.17 mg/cm2 (0.17mg/cm2, 4 h): 97.8%; pest or weed control at 0.17 mg/cm2, 0.17 mg/cm2 (0.17mg/cm2, 5 h): 97.2%; pest or weed control at 0.17 mg/cm2, 0.17 mg/cm2 (0.17mg/cm2, 6 h): 93.8%; pest or weed control at 0.17 mg/cm2, 0.17 mg/cm2 (0.17mg/cm2, 7 h): 98.2%; pest or weed control at 0.17 mg/cm2, 0.17 mg/cm2 (0.17mg/cm2, 8 h): 94.9%; Protection time (95% protection): 7 h
CCC1(CO)COC(CC(C)C)(CC(C)C)OC1 [17c] | 98.72 | 97.92 | 98.68 | 100 | 98.44 | 98.08 | 98.53 | 100 | 100 | 480 (0) min |  | Protection time (95% protection): 8 h
CCCCCCCCCC1OCC(O)CO1 (stereo not drawn) [trans-18a.6] |  |  |  |  |  |  |  |  |  |  |  | repellent activity, in words: inactive as a repellent
